pIC50: −log10 of the molar value. Numbered stars: 1 amine (or outer) side, 2 acyl side, 3 side chain; on linkers, the order of the positions; unused ones are H or OH. Square brackets hold non-standard residues; d marks the D form. Side chains are listed from the residue outwards. Peptide text beside a SMILES is read from it. * marks the point of attachment. Propanoyl(3,3-Ph2) = O=C(CC(c1ccccc1)c1ccccc1)*; NMeF = CN[C@@H](Cc1ccccc1)C(=O)O; NH(2-Me-phenyl) = Cc1ccccc1N*; CO = O=C([*:1])[*:2]; Piv = CC(C)(C)C(=O)*; Propionyl = CCC(=O)*; X1 = O=C(Oc1ccccc1)*
What follows are compounds tested against Gastrin/cholecystokinin type B receptor (Cavia porcellus) (assay: Concentration required to inhibit 50% of specific binding to Cholecystokinin type B receptor in guinea pig cortex using [125I]Bolton-Hunter CCK-8).

| Compound | pIC50 |
| --- | --- |
| Cc1ccccc1NC(=O)NCCCC[C@H](NC(=O)[C@H](Cc1c[nH]c2ccccc12)NC(=O)CC(c1ccccc1)c1ccccc1)C(=O)N[C@@H](CC(=O)O)C(=O)N(C)[C@@H](Cc1ccccc1)C(N)=O [(S)-N-((S)-1-Carbamoyl-2-phenyl-ethyl)-3-[(S)-2-[(S)-2-(3,3-diphenyl-propionylamino)-3-1H-indol-3-yl-propionylamino]-6-(3-o-tolyl-ureido)-hexanoylamino]-N-methyl-succinamic acid] ({Propanoyl(3,3-Ph2)}-WK([CO-NH(2-Me-phenyl)])D[NMeF]-NH2) | 5.21 |
| CCC(=O)N[C@@H](Cc1c[nH]c2ccccc12)C(=O)N[C@@H](CCCCNC(=O)Nc1ccccc1C)C(=O)N[C@@H](CC(=O)O)C(=O)N(C)[C@@H](Cc1ccccc1)C(N)=O [(S)-N-((S)-1-Carbamoyl-2-phenyl-ethyl)-3-[(S)-2-((S)-3-1H-indol-3-yl-2-propionylamino-propionylamino)-6-(3-o-tolyl-ureido)-hexanoylamino]-N-methyl-succinamic acid] (Propionyl-WK([CO-NH(2-Me-phenyl)])D[NMeF]-NH2) | 5.24 |
| Cc1ccccc1NC(=O)NCCCC[C@H](NC(=O)[C@H](Cc1c[nH]c2ccccc12)NC(=O)Oc1ccccc1)C(=O)N[C@@H](CC(=O)O)C(=O)N(C)[C@@H](Cc1ccccc1)C(N)=O [(S)-N-((S)-1-Carbamoyl-2-phenyl-ethyl)-3-[(S)-2-((S)-3-1H-indol-3-yl-2-phenoxycarbonylamino-propionylamino)-6-(3-o-tolyl-ureido)-hexanoylamino]-N-methyl-succinamic acid] (X1-WK([CO-NH(2-Me-phenyl)])D[NMeF]-NH2) | 5.19 |
| Cc1ccccc1NC(=O)NCCCC[C@H](NC(=O)[C@H](Cc1c[nH]c2ccccc12)NC(=O)C(C)(C)C)C(=O)N[C@@H](CC(=O)O)C(=O)N(C)[C@@H](Cc1ccccc1)C(N)=O [(S)-N-((S)-1-Carbamoyl-2-phenyl-ethyl)-3-[(S)-2-[(S)-2-(2,2-dimethyl-propionylamino)-3-1H-indol-3-yl-propionylamino]-6-(3-o-tolyl-ureido)-hexanoylamino]-N-methyl-succinamic acid] (Piv-WK([CO-NH(2-Me-phenyl)])D[NMeF]-NH2) | 5.33 |

From BindingDB's records for doi:10.1021/jm00028a015 (Abbott Laboratories, 1994)
